Data from patent US20170267560A1, “TABLETS FOR TREATING AND DISINFECTING WATER” (ERCROS, S.A., priority 2014, published 2017).

Assay: Thermogravimetric analysis of the quantity of additive encapsulated in microporous or mesoporous material
Details: for % Encapsulated (g additive/g solid total) × 100: encapsulated in silica by impregnation (Example 1)
[1] = MIL-53 MOF, two steps, 60° C., encapsulation time 1 day
[2] = MIL-53 MOF, two steps, 60° C., encapsulation time 2 days
[3] = MIL-53 MOF, two steps, 60° C., encapsulation time 4 days
[4] = MIL-53 MOF, two steps, 60° C., encapsulation time 7 days
[5] = MIL-88 A (Al) MOF, in-situ encapsulation in one single step (Example 4)
[6] = MIL-88 A (Al) MOF, two steps, encapsulation time 3 days

Compound	% Encapsulated (g additive/g dry solid) × 100 [1] [%]	% Encapsulated (g additive/g dry solid) × 100 [2] [%]	% Encapsulated (g additive/g dry solid) × 100 [3] [%]	% Encapsulated (g additive/g dry solid) × 100 [4] [%]	% Encapsulated (g additive/g dry solid) × 100 [5] [%]	% Encapsulated (g additive/g dry solid) × 100 [6] [%]	% Encapsulated (g additive/g solid total) × 100 [%]
CC(C)=CCCC(C)CC(=O)O (stereo not shown) [Citronellic acid, citronellic acid]	19.2	22.5	25	25.1	12.2	8.9	56.9
CC(C)=CCC/C(C)=C/C(=O)O [Geranic acid, geranic acid]	17.2	33.4	35.3	44.0	13.4	10.6	55.7
CC(C)=CCC/C(C)=C/CO [Geraniol, geraniol]	22.1	32.0	29.1	36.7	10.9	11.3	55.0
CCCCN(CCC(=O)OCC)C(C)=O [IR3535, ethyl 3-[acetyl(butyl)amino]propanoate]	26.0	22.1	26.1	25.2	21.7	21.0	58.7
